According to article PMC9570995, “Design, Synthesis, and Biological Evaluation of Novel Dihydropyridine and Pyridine Analogs as Potent Human Tissue Nonspecific Alkaline Phosphatase Inhibitors with Anticancer Activity: ROS and DNA Damage-Induced Apoptosis” (Molecules, 2022):

Test system: HeLa cells
Assay: Fluorescence microscopy of cytotoxic and pro-apoptotic effect (PI and DAPI staining)
Format: cell-based
Excerpt: Change in the cellular morphology, initially characterized by cell shrinkage, chromatin condensation, and degradation of the nuclear and plasma membranes, was mostly observed in the programmed cell death. The propidium iodide (PI) staining agent is a fluorescent molecule that penetrates the cancerous cells through ruptured membranes and binds with DNA. Similarly, the subsequent image offers red nuclei contrary to the dark background that indicates the counts of dead cells. On the other hand, viable cells have an intact cell membrane that resists the penetration of the staining agent (PI). Herein, the anticancer potential of the highly functionalized small dihydropyridine scaffold 4d was noticed through the apoptosis induction pathway based on various mechanisms. […] The detachment of cells and appearance of yellow intense fluorescence images on the dark background specify the distribution of PI into the dying cells in a dose-reliant mode.
The apoptotic feature, particularly the condensation of nuclear material, was also observed through the fluorescence microscopic evaluation of compound 4d-treated HeLa cells using 4′,6-diamidino-2-phenylindole (DAPI) as a staining agent. […] The fluorescence intensity enhances many folds upon binding with DNA. The extent of damage in the compound-treated cells was easily measured through an increase in the fluorescence emission intensity. […]

SMILES: N#CC1=C(N)N(Cc2ccccc2)C(N)=C(C#N)C1c1ccc2ccccc2c1 [Compound 4d, 2,6-Diamino-1-benzyl-4-(naphthalen-2-yl)-1,4-dihydropyridine-3,5-dicarbonitrile]
- IC50 (Homo sapiens, read-out: IC50 (cytotoxic potential, fluorescence microscopy with PI staining)): 28.3 µM
- morphological change of treated cells (DAPI staining) (IC50 and 2 × IC50): cellular shrinkage and nuclear condensation in a dose-dependent manner
